# In US20070128217A1 (priority 2003, published 2007):
# Experiments:
# [1] = tested on: antibodies in sera from SARS patients (sera 1a, 1b, 2, 6, 37, 62, London, SARS-yellow, SARS-green); assay type: binding, human; design: Binding of serum 6 to linear peptides of protein X1 of SARS-CoV Urbani / Binding of serum 37 to linear peptides of protein X1 of SARS-CoV Urbani / Binding of serum 6 to looped/cyclic peptide (PEPSCAN-ELISA) / Binding of serum 37 to looped/cyclic peptide (PEPSCAN-ELISA) / Binding of serum 37 to looped/cyclic peptides of protein X1 of SARS-CoV Urbani / Binding of serum 6 to linear peptides of protein X2 / Binding of serum 37 to linear peptides of protein X2 / Binding of serum 37 to looped/cyclic peptides of protein X2 of SARS-CoV Urbani / Binding of serum 6 to linear peptides of protein M of SARS-CoV Urbani / Binding of serum 37 to linear peptides of protein M of SARS-CoV Urbani / Binding of serum 6 to looped/cyclic peptides of protein M of SARS-CoV Urbani / Binding of serum 37 to looped/cyclic peptides of protein M of SARS-CoV Urbani / Binding of serum 6 to linear peptides of protein X3 of SARS-CoV Urbani / Binding of serum 37 to linear peptides of protein X3 of SARS-CoV Urbani / Binding of serum 37 to looped/cyclic peptides of protein X3 of SARS-CoV Urbani / Binding of serum 6 to linear peptides of protein X4 of SARS-CoV Urbani / Binding of serum 37 to linear peptides of protein X4 of SARS-CoV Urbani / Binding of serum 37 to looped/cyclic peptides of protein X4 of SARS-CoV Urbani / Binding of serum 6 to linear peptides of protein X5 of SARS-CoV Urbani / Binding of serum 37 to linear peptides of protein X5 of SARS-CoV Urbani / Binding of serum 37 to looped/cyclic peptides of protein X5 of SARS-CoV Urbani / Binding of serum 6 to linear peptides of protein N of SARS-CoV Urbani / Binding of serum 37 to linear peptides of protein N of SARS-CoV Urbani / Binding of serum 6 to linear peptide (PEPSCAN-ELISA) / Binding of serum 1a to looped/cyclic peptides of protein N of SARS-CoV Urbani / Binding of serum 1b to looped/cyclic peptides of protein N of SARS-CoV Urbani / Binding of serum 2 to looped/cyclic peptides of protein N of SARS-CoV Urbani / Binding of serum 6 to looped/cyclic peptides of protein N of SARS-CoV Urbani / Binding of serum 37 to looped/cyclic peptides of protein N of SARS-CoV Urbani / Binding of serum 62 to looped/cyclic peptides of protein N of SARS-CoV Urbani / Binding of serum London to looped/cyclic peptides of protein N of SARS-CoV Urbani / Binding of serum SARS-green to looped/cyclic peptides of protein N of SARS-CoV Urbani: unit not given here
# [2] = tested on: recombinant human anti-SARS-CoV antibody 03-018; assay type: binding; design: Binding of antibody 03-018 to linear peptides of the N protein of SARS-CoV Urbani / Binding of antibody 03-018 to looped/cyclic peptides of the N protein of SARS-CoV Urbani: unit not given here
# [3] = tested on: rabbit serum obtained by immunizing a rabbit with the SARS-CoV strain Frankfurt 1; assay type: binding; design: Binding of a rabbit serum to linear peptides / Binding of a rabbit serum to looped peptides / Rabbit serum linear peptides / Rabbit serum looped peptides / Binding of a rabbit serum to linear peptides of protein N of SARS-CoV Urbani (Rabbit serum linear peptides) / Binding of a rabbit serum to looped/cyclic peptides of protein N of SARS-CoV Urbani (Rabbit serum looped peptides): unit not given here
# [4] = tested on: control sera (pooled serum of ten healthy LUMC hospital workers; commercial negative donor pooled serum from the Dutch bloodbank); assay type: binding, human; design: Binding of Control serum LUMC to linear peptides / Binding of Control serum Blood-bank to linear peptides / Binding of Control serum LUMC to looped peptides / Binding of Control Serum Blood-Bank to Looped peptides / Binding of Control serum LUMC to linear peptides of the protein M of SARS-CoV Urbani / Binding of Control serum Blood-bank to linear peptides of the protein M of SARS-CoV Urbani / Binding of Control serum LUMC to looped peptides of the protein M of SARS-CoV Urbani / Binding of Control Serum Blood-Bank to Looped peptides of the protein M of SARS-CoV Urbani: unit not given here
Sequence,Binding of serum 1a to linear peptides of protein N of SARS-CoV Urbani [1],Binding of serum 1a to looped/cyclic peptides of protein N of SARS-CoV Urbani [1],Binding of serum 1b to linear peptides of protein N of SARS-CoV Urbani [1],Binding of serum 1b to looped/cyclic peptides of protein N of SARS-CoV Urbani [1],Binding of serum 2 to linear peptides of protein N of SARS-CoV Urbani [1],Binding of serum 2 to looped/cyclic peptides of protein N of SARS-CoV Urbani [1],Binding of serum 6 to linear peptides of protein N of SARS-CoV Urbani [1],Binding of serum 6 to looped/cyclic peptides of protein N of SARS-CoV Urbani [1],Binding of serum 37 to linear peptides of protein N of SARS-CoV Urbani [1],Binding of serum 37 to looped/cyclic peptides of protein N of SARS-CoV Urbani [1],Binding of serum 62 to linear peptides of protein N of SARS-CoV Urbani [1],Binding of serum 62 to looped/cyclic peptides of protein N of SARS-CoV Urbani [1],Binding of serum London to linear peptides of protein N of SARS-CoV Urbani [1],Binding of serum London to looped/cyclic peptides of protein N of SARS-CoV Urbani [1],Binding of serum SARS-green to linear peptides of protein N of SARS-CoV Urbani [1],Binding of serum SARS-green to looped/cyclic peptides of protein N of SARS-CoV Urbani [1],Binding of serum SARS-yellow to linear peptides of protein N of SARS-CoV Urbani [1],Binding of serum SARS-yellow to looped/cyclic peptides of protein N of SARS-CoV Urbani [1],Binding of antibody 03-018 to linear peptides of the N protein of SARS-CoV Urbani [2],Binding of antibody 03-018 to looped/cyclic peptides of the N protein of SARS-CoV Urbani [2],other results
GKMKELSPRWYFYYL,0.2,0.3,0.1,0.2,0.1,0.5,0.1,0.4,0.5,0.8,0.5,0.8,0.4,0.7,0.2,0.4,0.6,0.6,0.1,0.3,Binding of a rabbit serum to linear peptides of protein N of SARS-CoV Urbani (Rabbit serum linear peptides) [3]: 0.1; Binding of a rabbit serum to looped/cyclic peptides of protein N of SARS-CoV Urbani (Rabbit serum looped peptides) [3]: 0.7; Binding of Control Serum Blood-Bank to Looped peptides [4]: 0.8; Binding of Control serum Blood-bank to linear peptides [4]: 0.6; Binding of Control serum LUMC to linear peptides [4]: 0.6; Binding of Control serum LUMC to looped peptides [4]: 0.7
GMEVTPSGTWLTYHG,0.3,0.4,0.1,0.2,0.1,0.4,0.2,0.3,0.5,0.7,0.6,0.8,0.5,0.5,0.2,0.4,0.7,0.5,0.1,0.2,Binding of a rabbit serum to linear peptides of protein N of SARS-CoV Urbani (Rabbit serum linear peptides) [3]: 0.1; Binding of a rabbit serum to looped/cyclic peptides of protein N of SARS-CoV Urbani (Rabbit serum looped peptides) [3]: 0.4; Control Serum Blood-Bank Looped peptides [4]: 0.7; Control serum Blood-bank linear peptides [4]: 0.6; Control serum LUMC linear peptides [4]: 0.6; Control serum LUMC looped peptides [4]: 0.7
GMSRIGMEVTPSGTW,0.3,0.3,0.1,0.2,0.2,0.3,0.2,0.2,0.7,0.5,0.7,0.5,0.5,0.4,0.5,0.3,0.7,0.5,0.1,0.2,Binding of a rabbit serum to linear peptides of protein N of SARS-CoV Urbani (Rabbit serum linear peptides) [3]: 0.1; Binding of a rabbit serum to looped/cyclic peptides of protein N of SARS-CoV Urbani (Rabbit serum looped peptides) [3]: 0.4; Control Serum Blood-Bank Looped peptides [4]: 0.6; Control serum Blood-bank linear peptides [4]: 0.6; Control serum LUMC linear peptides [4]: 0.6; Control serum LUMC looped peptides [4]: 0.5
